In US20240343733A1, “COMPOUNDS FOR TARGETING DEGRADATION OF IRAK4 PROTEINS” (BIOGEN MA INC., priority 2021, published 2024):

Tested on: IRAK4
Experiment: Pharmacodynamics (PD) in Male Cynomolgus Monkeys, IRAK4 quantitation in PBMCs by MSD
Type: in vivo
Conditions: male cynomolgus monkey PBMCs
Protocol: Assay 6. Pharmacodynamics (PD) in Male Cynomolgus Monkeys
For PBMC isolation, approximately 1 mL of blood sample was collected in a BD Vacutainer® EDTA Tubes (Catalog no. 36643, Becton, Dickinson and Co., Franklin Lakes, NJ, USA) with K2-EDTA and stored at room temperature (RT). The blood was diluted 1:1 with PBS at room temperature. The tube contents were mixed gently by pipetting up and down 5 times. The PBS/blood mixture was layered carefully on the top of 2 ml Ficoll® Paque Plus (Catalog no. 17-1440-03, Cytiva, Marlborough, MA, USA) in 15 mL falcon tubes, then centrifuged at RT for 30 minutes at 600 g with acceleration set at 6 and brake set at 0. The middle ‘cloudy’ interface between plasma and Ficoll® Paque Plus containing the PBMCs was transferred to a 15 mL tube and washed once with 10 mL of PBS, then centrifuged for 10 minutes at RT at 250 g. The supernatant was discarded without disturbing the cell pellet. If red blood cells were still present, 1 mL of lysis buffer was added, incubated for 2 minutes at RT, then 10 mL PBS was added to terminate lysis, and then centrifuged for 5 minutes at RT at 250 g. The supernatant was discarded without disturbing the cell pellet and stored at −80° C. until analysis.
For cell counting, the cell suspension was diluted 1:1 with Trypan Blue dye and mixed well. The cell numbers (live and dead) were counted, and cell viability calculated. The cell numbers and cell viability of each PBMC sample were recorded.
For sample preparation for MSD analysis, 2 million cells were subjected to lysis by 100 μL of RIPA lysis and extraction buffer (Catalog no 89900, ThermoScientific, Waltham, MA, USA) with phosphatase and protease inhibitors were added for 30 minutes at 4° C. To prepare RIPA lysis and extraction buffer with phosphatase and protease inhibitors, 1 tablet of cOmplete™, 1 tablet of PhosSTOP™, 100 μL each of Phosphatase Inhibitor Cocktail 2 and 3 (all catalog no. 11836153001, 4906845001, P5726 and P0044 respectively, Sigma Aldrich, St. Louis, MO, USA) were mixed with 10 mL RIPA buffer. The lysed PBMC samples were stored at −80° C. until analysis. Samples were completely thawed before being subjected to MSD analysis. The data was normalized using protein concentration and PBMC cell numbers, separately, for comparison.
For biomarker detection of IRAK4 in samples, MSD® or Meso Scale Discovery® biomarker assays technology was utilized, which is an ELISA-based method.
For the capture or coating step, 100 μL of IRAK4 Monoclonal Antibody (2H9) (Fisher, Catalog no. MA5-15883) was added to 96 well MSD multi-array 96 well plate (MSD Catalog no. L15XA-3, MSD multi-array 96 well plate). The plate was sealed and incubated overnight at 2-8° C. The plate was washed 5×300 μL/well with tris buffered saline wash buffer. 300 μL of blocking Buffer (3% BSA in 0.1% PBST) (Wuxi, Catalog no. BB-20211112-YJC) was added. The plate was sealed and incubated for 2 h±10 minutes at room temperature without shaking. The plate was washed 5×300 μL/well with tris buffered saline wash buffer. 100 μL of standard and samples were added into each well. The plate was sealed and incubated for 1 h 10 minutes at room temperature with shaking at 500 rpm. The plate was washed 5×300 μL/well with tris buffered saline wash buffer. 100 μL of detection solution containing IRAK4 antibody (Catalog no. 4363, Cell Signaling Technology, Danvers, MA, USA) was added into each well. The plate was sealed and incubated for 1 h 10 min at RT with shaking at 500 RPM. The plate was washed 5×300 μL/well with tris buffered saline wash buffer. 100 μL of sulfotag solution containing Sulfo-Tag labeled anti-rabbit antibody (Goat) (Catalog no. R32AB-1, Meso Scale Diagnostics, Rockville, MD, USA) was added into each well. The plate was sealed and incubated for 1 h+10 minutes at room temperature with shaking at 500 RPM. The plate was washed 5×300 […] with tris buffered saline wash buffer. […]

Structure (SMILES)	IRAK4 change from vehicle (time 2 h)	IRAK4 change from vehicle (time 8 h)	IRAK4 change from vehicle (time 24 h)	IRAK4 change from vehicle (time 48 h)	IRAK4 change from vehicle (time 72 h)	IRAK4 change from vehicle (time 96 h)
CC(C)Oc1cc2nc([C@H]3CC[C@H](CN4CCC(c5ccc6c(c5)n(C)c(=O)n6C5CCC(=O)NC5=O)CC4)CC3)cn2cc1C(=O)Nc1cccn([C@H]2C[C@H]2F)c1=O (stereo partly drawn) [Compound 169, 2-((1R,4S)-4-((4-(1-(2,6-dioxopiperidin-3-yl)-3-methyl-2-oxo-2,3-dihydro-1H-benzo[d]imidazol-5-yl)piperidin-1-yl)methyl)cyclohexyl)-N-(1-((1S,2R)-2-fluorocyclopropyl)-2-oxo-1,2-dihydropyridin-3-yl)-7-isopropoxyimidazo[1,2-a]pyridine-6-carboxamide]	−62%	−83%	−97%	−97%	−94%	−90%
CC(C)Oc1cc2nc([C@H]3CC[C@H](CN4CCC(c5ccc6c(c5)n(C)c(=O)n6C5CCC(=O)NC5=O)CC4)CC3)cn2cc1C(=O)Nc1cnn2cccnc12 (stereo partly drawn) [Compound 48, 2-[4-[[4-[1-(2,6-dioxo-3-piperidyl)-3-methyl-2-oxo-benzimidazol-5-yl]-1-piperidyl]methyl]cyclohexyl]-7-isopropoxy-N-pyrazolo[1,5-a]pyrimidin-3-yl-imidazo[1,2-a]pyridine-6-carboxamide]	−50%	−87%	−96%	−94%	−94%	−87%
